Values of other authors in patent EP3360549A1, “SMALL MOLECULE THERAPEUTICS FOR TREATING METACHROMATIC LEUKODYSTROPHY” (Rheinische Friedrich-Wilhelms-Universität Bonn, priority 2017, dated 2018).

Test system: sulfatides
Details: mice, brain; reduction, along with cerebrosides and sphingomyelin

CC(=O)CC(c1ccccc1)c1c(O)c2ccccc2oc1=O (stereo not shown) [Warfarin]
reduce the levels of sulfatides: 33%
